Values of other authors, collected in patent US7070816B2, “Methods for treating prostatic intraepithelial neoplasia with herbal compositions” (New Chapter, Inc., priority 2003, dated 2006).
Blank lines part the entries; values can stand above or below the compound they belong to.

Tests used:
[1] = target: T1, COX-2 (Homo sapiens, UniProt P35354)
T1 sequence (P35354 18-604): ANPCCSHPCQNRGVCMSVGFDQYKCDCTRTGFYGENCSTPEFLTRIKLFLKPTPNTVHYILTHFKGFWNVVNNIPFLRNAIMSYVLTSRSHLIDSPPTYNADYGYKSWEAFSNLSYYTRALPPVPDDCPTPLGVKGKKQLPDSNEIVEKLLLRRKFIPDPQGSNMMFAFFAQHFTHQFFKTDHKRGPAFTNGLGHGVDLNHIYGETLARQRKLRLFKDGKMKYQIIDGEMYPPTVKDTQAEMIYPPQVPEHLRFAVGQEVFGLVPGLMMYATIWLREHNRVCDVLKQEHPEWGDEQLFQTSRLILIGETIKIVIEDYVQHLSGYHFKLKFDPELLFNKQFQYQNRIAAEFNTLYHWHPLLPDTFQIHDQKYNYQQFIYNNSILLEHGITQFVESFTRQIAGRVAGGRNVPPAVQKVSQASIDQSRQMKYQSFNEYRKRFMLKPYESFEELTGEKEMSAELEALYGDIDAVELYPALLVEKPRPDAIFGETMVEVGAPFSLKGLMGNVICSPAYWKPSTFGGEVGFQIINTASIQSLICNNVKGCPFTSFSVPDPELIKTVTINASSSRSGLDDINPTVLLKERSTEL

[2] = target: COX-1 (Homo sapiens, UniProt P23219)
[3] = target: T2, 5-lipoxygenase (Homo sapiens, UniProt P09917)
T2 sequence (P09917 1-674): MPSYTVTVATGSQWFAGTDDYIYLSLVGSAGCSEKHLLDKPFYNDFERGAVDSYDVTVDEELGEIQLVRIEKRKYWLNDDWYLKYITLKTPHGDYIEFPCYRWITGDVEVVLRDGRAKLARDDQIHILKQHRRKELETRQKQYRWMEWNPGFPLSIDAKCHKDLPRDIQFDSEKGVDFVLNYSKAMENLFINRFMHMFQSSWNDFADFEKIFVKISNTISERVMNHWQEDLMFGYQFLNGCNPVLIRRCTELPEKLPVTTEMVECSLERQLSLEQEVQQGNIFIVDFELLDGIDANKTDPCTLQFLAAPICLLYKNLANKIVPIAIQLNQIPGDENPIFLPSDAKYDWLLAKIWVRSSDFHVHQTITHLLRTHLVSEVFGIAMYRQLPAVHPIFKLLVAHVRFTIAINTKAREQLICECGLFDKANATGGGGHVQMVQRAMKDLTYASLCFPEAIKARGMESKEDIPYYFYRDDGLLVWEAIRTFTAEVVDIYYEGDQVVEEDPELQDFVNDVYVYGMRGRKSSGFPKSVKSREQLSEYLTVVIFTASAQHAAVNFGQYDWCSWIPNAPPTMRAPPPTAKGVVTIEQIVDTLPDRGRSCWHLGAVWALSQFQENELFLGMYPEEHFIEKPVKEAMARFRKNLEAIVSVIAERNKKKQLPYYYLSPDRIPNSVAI

[4] = test system: cyclooxygenase

Sequence of COX-1 (P23219 24-599): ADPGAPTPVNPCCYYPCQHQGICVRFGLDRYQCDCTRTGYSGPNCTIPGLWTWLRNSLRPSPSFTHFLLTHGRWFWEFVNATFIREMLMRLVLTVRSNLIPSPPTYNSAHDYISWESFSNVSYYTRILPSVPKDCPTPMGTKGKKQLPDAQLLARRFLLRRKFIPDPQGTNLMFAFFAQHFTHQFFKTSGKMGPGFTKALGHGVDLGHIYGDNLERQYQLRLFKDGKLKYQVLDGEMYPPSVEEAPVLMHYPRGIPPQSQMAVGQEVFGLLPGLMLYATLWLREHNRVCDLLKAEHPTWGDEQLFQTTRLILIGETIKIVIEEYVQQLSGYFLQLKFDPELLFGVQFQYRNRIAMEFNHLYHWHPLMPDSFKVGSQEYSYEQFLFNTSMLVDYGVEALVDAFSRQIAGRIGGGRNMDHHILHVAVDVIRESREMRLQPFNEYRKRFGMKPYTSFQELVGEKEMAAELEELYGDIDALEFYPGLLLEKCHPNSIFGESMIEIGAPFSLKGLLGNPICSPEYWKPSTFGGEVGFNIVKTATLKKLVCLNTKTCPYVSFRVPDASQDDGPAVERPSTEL

Compound: Oc1cc(O)c2c(c1)O[C@H](c1ccc(O)c(O)c1)[C@@H](O)C2 [(+)-catechin]
- COX-2 inhibition [1]: COX-1 and COX-2 inhibitors
- COX-1 inhibition [2]: COX-1 and COX-2 inhibitors

- COX-2 inhibition [1]: inhibit COX-2
- COX-1 inhibition [2]: without inhibiting COX-1 activity
Compound: COc1ccc2cc3[n+](cc2c1OC)CCc1cc2c(cc1-3)OCO2 [Berberine]

Compound: C=CCc1ccc(O)c(OC)c1 [Eugenol]
- 5-lipoxygenase inhibition [3]: 5-lipoxygenase inhibitor

Compound: C[C@H]1[C@H](C)CC[C@]2(C(=O)O)CC[C@]3(C)C(=CC[C@@H]4[C@@]5(C)CC[C@H](O)C(C)(C)[C@@H]5CC[C@]43C)[C@H]12 [Ursolic acid]
- COX-2 inhibition [1]: significant COX-2 inhibitory effect

- COX-2 inhibition [1]: COX-2 inhibitor
Compound: O=C(O)c1ccccc1O [salicylic acid]

- cyclooxygenase inhibition [4]: inhibit cyclooxygenase
Compound: gingerols

- cyclooxygenase inhibition [4]: inhibit cyclooxygenase
Compound: shogaols
